Reference: paper PMC6691788, “Design and synthesis of phthalazine-based compounds as potent anticancer agents with potential antiangiogenic activity via VEGFR-2 inhibition” (Journal of Enzyme Inhibition and Medicinal Chemistry, 2019)
Where two headings read alike, the source gives them in different places.

How the values were obtained:
VEGFR-2 = conditions: cited from earlier work
VEGFR-2 tyrosine kinase = molecular target: T1, VEGFR-2 tyrosine kinase (Homo sapiens, UniProt P35968); assay: In vitro VEGFR-2 tyrosine kinase assay (BPS Bioscience); format: biochemical; conditions: for IC50: 10 μM ATP/0.2 mg/ml poly-Glu-Tyr; for inhibition at 10 µM: read-out: VEGFR-2 % inhibition, 10 μM concentration
T1 construct: purchased BPS Bioscience 40301
T1 sequence (P35968 20-1356): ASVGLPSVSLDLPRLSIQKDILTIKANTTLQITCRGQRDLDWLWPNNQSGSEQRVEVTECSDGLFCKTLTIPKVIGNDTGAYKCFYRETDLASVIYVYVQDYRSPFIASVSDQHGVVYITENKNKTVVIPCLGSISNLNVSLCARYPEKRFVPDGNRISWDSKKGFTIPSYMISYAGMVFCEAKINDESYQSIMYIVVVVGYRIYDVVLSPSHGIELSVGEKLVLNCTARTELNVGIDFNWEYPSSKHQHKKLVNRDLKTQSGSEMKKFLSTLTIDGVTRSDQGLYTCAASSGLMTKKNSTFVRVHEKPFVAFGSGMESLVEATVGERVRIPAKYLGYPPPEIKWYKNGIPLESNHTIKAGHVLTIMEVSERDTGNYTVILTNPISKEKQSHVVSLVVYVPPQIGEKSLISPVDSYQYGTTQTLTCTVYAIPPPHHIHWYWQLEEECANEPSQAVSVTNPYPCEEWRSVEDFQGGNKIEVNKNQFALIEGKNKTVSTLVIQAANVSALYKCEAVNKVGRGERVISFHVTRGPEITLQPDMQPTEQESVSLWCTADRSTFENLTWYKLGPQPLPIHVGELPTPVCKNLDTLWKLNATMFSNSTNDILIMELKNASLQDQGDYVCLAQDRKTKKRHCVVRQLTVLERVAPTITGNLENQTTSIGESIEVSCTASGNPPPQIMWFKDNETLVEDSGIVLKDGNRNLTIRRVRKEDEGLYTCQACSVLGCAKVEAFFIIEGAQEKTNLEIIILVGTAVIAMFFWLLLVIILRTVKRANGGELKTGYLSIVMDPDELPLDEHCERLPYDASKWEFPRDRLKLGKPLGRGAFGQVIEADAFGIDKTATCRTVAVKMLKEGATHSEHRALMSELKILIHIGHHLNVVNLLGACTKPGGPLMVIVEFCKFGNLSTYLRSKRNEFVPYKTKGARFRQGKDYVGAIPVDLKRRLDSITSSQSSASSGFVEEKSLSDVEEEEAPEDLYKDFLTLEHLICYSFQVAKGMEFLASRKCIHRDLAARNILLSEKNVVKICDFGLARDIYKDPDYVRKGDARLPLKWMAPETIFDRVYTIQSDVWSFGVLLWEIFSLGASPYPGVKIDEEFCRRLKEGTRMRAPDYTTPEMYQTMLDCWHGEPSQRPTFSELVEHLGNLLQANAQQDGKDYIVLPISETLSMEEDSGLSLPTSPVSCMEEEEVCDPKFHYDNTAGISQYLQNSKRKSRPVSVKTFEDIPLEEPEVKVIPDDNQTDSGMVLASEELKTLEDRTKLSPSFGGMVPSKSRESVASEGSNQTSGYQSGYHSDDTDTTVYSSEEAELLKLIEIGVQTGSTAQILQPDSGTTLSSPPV
Protocol: The VEGFR tyrosine kinase assays were performed at BPS Bioscience (www.bpsbioscience.com). All the synthesised compounds representing the six series were evaluated for their ability to inhibit VEGFR-2 tyrosine kinase at single dose of 10 µM.
The VEGFR tyrosine kinase activity at single dose concentration of 10 μM was carried out by BPS Bioscience (www.bpsbioscience.com). VEGFR (BPS#40301) served as the enzyme source and Poly (Glu, Tyr) sodium salt, (4:1, Glu:Tyr) (Sigma#P7244) served as the standardized substrate & Kinase-Glo Plus Luminescence kinase assay kit (Promega#V3772). The IC50 determination was carried out where quality control testing is routinely performed on each of the targets to insure compliance to acceptable standards. ^33P-ATP was purchased from Perkin Elmer and ADP-Glo^TM was purchased from Promega. All other materials were of standard laboratory grade.
The VEGFR tyrosine kinase activity was performed using Kinase-Glo Plus luminescence kinase assay kit (Promega). It measures kinase activity by quantitating the amount of ATP remaining in solution following a kinase reaction. The luminescent signal from the assay is correlated with the amount of ATP present and is inversely correlated with the amount of kinase activity. The compounds were diluted to 100 μM in 10% DMSO and […] of the dilution was added to a […] reaction so that the final concentration of DMSO is 1% in all of reactions. All of the enzymatic reactions were conducted at 30 °C for 40 min. The 50 μl reaction mixture contains […], pH 7.4, […], 0.1 mg/ml BSA, 0.2 mg/ml Poly (Glu, Tyr) substrate, 10 μM ATP and VEGFR. After the enzymatic reaction, […] of Kinase-GloPlus Luminescence kinase assay solution (Promega) was added to each reaction and incubate the plate for 5 min at room temperature. Luminescence signal was measured using a BioTek Synergy 2 microplate reader. The protein kinase assays used to determine IC50 value were performed using ADP-GloTM assay kit from Promega which measures the generation of ADP by the protein kinase. Generation of ADP by the protein kinase reaction leads to an increase in luminescence signal in the presence of ADP-GloTM assay kit. The assay was started by incubating the reaction mixture in a 96-well plate at 30 °C for 30 min. After the 30 min incubation period, the assay was terminated by the addition of […] of ADP-GloTM Reagent (Promega). The 96 well plate was shaken and then incubated for 40 min at ambient temperature. […] of Kinase detection reagent was added, the 96-well reaction plate was then read using the ADP-Glo Luminescences Protocol on a GloMax plate reader (Promega: Catalog #E7031). Blank control was set up that included all the assay components except the addition of appropriate substrate (replace with equal volume of kinase assay buffer). The corrected activity for each protein kinase target was determined by removing the blank control value.
VEGFR activity assays were performed in duplicate at each concentration. The luminescence data were analyzed using the computer software, Graphpad Prism. The difference between luminescence intensities in the absence of VEGFR (Lut) and in the presence of VEGFR (Luc) was defined as 100% activity (Lut - Luc). […] IC50 determination for inhibitor against VEGFR was estimated by generating a graph of log inhibitor vs normalized response with variable using the Prism software.

HUVEC = assay: In vitro HUVEC anti-proliferative assay (alamarBlue); format: cell-based, human; conditions: HUVEC proliferation, single dose 10 µM, 72 hours; for inhibition at 10 µM: Homo sapiens, read-out: % Cell inhibition
Protocol: The assay was performed at single dose concentration of 10 µM, where HUVEC umbilical vein endothelial cells, human (Life Technologies # C-003-5C) served as the cells’ source, in Medium 200 (Life Technologies # M-200-500), with large vessel endothelial supplement (LVES) (Life Technologies # A14608-01) and Pen-step (Hyclone # SV30010). AlamarBlue (Life Technologies # DAL1025) was used as the fluorescent reagent.
HUVEC cells were cultured in Medium 200 with 2% LVES and 1% Pen-strep. To perform the proliferation assay, HUVEC cells were seeded at 5000 cells/ 50µl /well in a 96-well black clear-bottom tissue culture plate. Cells were incubated at 37°C and 5% CO2 overnight to allow them to recover and reattach.
Next day cells were treated with test compounds for 72 hours. After treatment, cell proliferation was measured by Fluorescent quantitation of alamarBlue reagent. The alamarBlue assay incorporates a fluorometric/colorimetric growth indicator based on detection of metabolic activity. Specifically, resazurin, the active ingredient in the alamarBlue reagent, is blue in color and virtually non-fluorescent. Upon entering cells, resazurin is reduced to resorufin, a compound that is red in color and highly fluorescent. Continued cell growth maintains a reduced environment, therefore increasing the overall fluorescence and color of the media surrounding cells. […] To perform the alamarBlue assay, 10 µl of alamarBlue reagent was added to each well and the plate was incubated at 37°C for an additional 2 hours. Fluorescence intensity was measured at an excitation of 530 nm and an emission of 590 nm using a BioTek Synergy^TM 2 microplate reader.
Cell proliferation assays were performed in triplicate at each concentration. The fluorescent intensity data were analyzed using the computer software, Graphpad Prism. In the absence of the compound, the fluorescent intensity (Ft) in each data set was defined as 100%. In the absence of cells, the fluorescent intensity (Fb) in each data set was defined as 0%. The percent cell in the presence of each compound was calculated according to the following equation: %cell = (F-Fb)/(Ft-Fb), where F= the fluorescent intensity in the presence of the compound, Fb= the fluorescent intensity in the absence of cells, and Ft = the fluorescent intensity in the absence of the compound.

HCT-116 = assay: In vitro cytotoxic activity, SRB assay; format: cell-based; conditions: Homo sapiens; HCT-116, 48h
Protocol: (§1) In addition, compounds (12a, 12b, 12c, 16b, 16c and 17b) were evaluated against a third cell line (HepG-2) These first two cell lines were selected based on the sensitivity of the previously NCI-tested derivatives towards them amongst the 60 NCI panel. The growth inhibition is expressed as the median growth inhibitory concentration (IC50) which corresponds to the concentration required for 50% inhibition of cell viability and are provided in (Table S6 in supplementary material).
(§2) 5,000 cells in fresh medium were seeded in 96-well microlitre plates and left to attach for 24h. Cells were incubated with the tested compounds at concentration range from 0,1,2.5,5,10 µg/ml and incubation was continued for48h. After 48h treatment,the cells were fixed with 50µl cold 50% trichloroacetic acid (TCA )for 1h at 4 °C. Wells were then washed 5 times with water and stained for 30 min at room temperature with 50µl of 0.4%SRB dissolved in 1% acetic acid. The wells were then washed 4 times with 1% acetic acid. The plates were air dried and the dye was solubilized with 100µl/well of 10mM tris base (pH 10.5) for 5min on a shaker (Orbital Shaker OS 20,Boeco,Germany) at 1600 rpm. The optical density (O.D.)of each well was measured spectrophotometrically at 564 nm with an enzyme linked immunosorbent assay( ELIZA) micraplate reader (Tecan Sunrise,Austria).The mean back ground absorbance was subtracted automatically and mean values for each drug concentration was calculated.
(§3) The percentage of cell survival was calculated as follows:
(§4) Survival fraction =O.D.(treated cells)/O.D.(control cells)
(§5) The IC50 value (the concentration required to produce 50% inhibition of cell growth) was calculated using sigmodial dose response curve-fitting models (GraphPad,Prizm software incorporated). Each concentration was repeated 3 times.

HepG-2 = assay: In vitro cytotoxic activity, SRB assay; format: cell-based; conditions: Homo sapiens, HepG2; HepG-2, 48h
Protocol: as §1, §2, §3, §4, §5

MCF-7 = assay: In vitro cytotoxic activity, SRB assay; format: cell-based; conditions: Homo sapiens, MCF7; MCF-7, 48h
Protocol: as §1, §2, §3, §4, §5

VEGFR-3 = tested on: VEGFR-3; design: method as in PMID 24565910; conditions: cited from earlier work

Compound	IC50 (VEGFR-2; Figure 1, known VEGFR-2 kinase inhibitors, read-out: IC50) [µM]	IC50 (VEGFR-2 tyrosine kinase) [µM]	inhibition at 10 µM (VEGFR-2 tyrosine kinase) [%]	% Cell growth (HUVEC) [%]	inhibition at 10 µM (HUVEC) [%]	IC50 (HCT-116) [µM]	IC50 (HepG-2) [µM]	IC50 (MCF-7) [µM]	melting point [°C]	IC50 (VEGFR-2; read-out: IC50 VEGFR-2) [µM]	IC50 (VEGFR-3) [µM]
c1ccc(Cc2cnc(N3CCN(c4ncnc5ccccc45)CC3)nc2)cc1 [(VI)]	0.0034										
O=C(Nc1ccc(Cl)cc1)Nc1ccc(Nc2nnc(Cl)c3ccccc23)cc1 [Compound 12b, 1–(4-Chlorophenyl)-3–(4-(4-chlorophthalazin-1-ylamino)phenyl)urea]		4.4	70	20.17	79.8	174	174	155	236 to 238		
O=C(Nc1ccc(Nc2nnc(Cl)c3ccccc23)cc1)Nc1ccc(Cl)c(C(F)(F)F)c1 [Compound 12c, 1–(4-Chloro-3-(trifluoromethyl)phenyl)-3–(4-(4-chlorophthalazin-1-ylamino)phenyl)-urea]		2.7	78	27.42	72.6	724	> 1000	> 1000	187 to 189		
CNC(=O)c1cc(COc2nnc(Nc3ccc(Cl)cc3)c3ccoc23)ccn1 [Telatinib (V), telatinib]										0.006	0.004
